What was measured:
sigma binding site = test: Sigma binding affinity using [^3 H]-(+)-3-(3'-hydroxyphenyl) N (1'-propyl)piperidine ([^3 H]3PPP); conditions: [^3 H]3PPP radioligand, in vitro
Description: (§1) Sigma binding affinities are measured using [^3 H]-(+)-3-(3'-hydroxyphenyl) N (1'-propyl)piperidine, referred to in the following Table I as 3PPP. This test is carried out according to the procedures of B. L. Largent, et al, Proc. Natl. Acad. Sci., USA, 1984; 81:5618. The affinity of the compounds of the present invention for dopamine receptors was determined in vitro with the dopamine antagonist [^3 H]spiperone according to the procedure of S. Urwyler, et al, J. Neurochem. 1986; 46:1058. The ability of the compounds to bind muscarinic antagonist sites was determined in vitro using [^3 H]-quinuclidinyl benzylate (RQNB) according to the procedure of M. Watson, et al, J. Pharmacol. Exp. Ther. 1986; 237:411.

dopamine receptors = test: Affinity for dopamine receptors with the dopamine antagonist [^3 H]spiperone (RBSP); assay type: binding; conditions: in vitro
Description: as §1

[1] = system: muscarinic antagonist sites; test: Binding to muscarinic antagonist sites using [^3 H]-quinuclidinyl benzylate (RQNB); conditions: in vitro
Description: as §1

| SMILES | IC50 (sigma binding site) | IC50 (dopamine receptors) | RQNB % Inhib at 10^-6 M [1] |
| --- | --- | --- | --- |
| CCCN1CC=CC(CCC(=NO)c2ccccc2)C1.O=C(O)C(=O)O (stereo not drawn) [1(e)(a), 1-Phenyl-3-(1,2,3,6-tetrahydro-1-propyl-3-pyridinyl)-1-propanone oxime oxalate] | 2.07 nM | > 1000 nM | 27% |
| CCCN1CCC=C(CCC(=NO)c2ccccc2)C1.O=C(O)C(=O)O [1(e)(b), 1-Phenyl-3-(1,2,5,6-tetrahydro-1-propyl-3-pyridinyl)-1-propanone oxime oxalate] | 1.99 nM | > 1000 nM | 10% |
| CCCN1CC=CC(CCC(=NO)c2ccc(OC)cc2)C1.O=C(O)C(=O)O (stereo not drawn) [2(e)(a), 1-(4-Methoxyphenyl)-3-(1,2,3,6-tetrahydro-1-propyl-3-pyridinyl)-1-propanoneoxime oxalate] | 6.49 nM | > 1000 nM | 6% |
| CCCN1CCC=C(CCC(=NO)c2ccc(OC)cc2)C1.O=C(O)C(=O)O [2(e)(b), 1-(4-Methoxyphenyl)-3-(1,2,5,6-tetrahydro-1-propyl-3-pyridinyl)-1-propanone oxime oxalate] | 2.39 nM | > 1000 nM | 9% |

Source: patent US5208343A, “Tetrahydropyridine oxime compounds” (Warner-Lambert Company, priority 1992, dated 1993)
